Source: patent US20080260857A1, “Substance and Method for Treating Neoplasms” (priority 2005, published 2008)

Tested on: myeloma NS/0 cells
Test: Myeloma NS/0 tumor in mice
Format: in vivo, DBA/BALB(F1) mice
Settings: Table 3; i.p. 0.5 ml once a day for 5 days from day 3; Succinate 0.1 mg/mouse, IFN 10^5 IU/mouse, rubomicin 0.016 mg/mouse, etoposide 0.03 mg/mouse; day 21; light water 99.90%; mean ±SD (n=5)
Procedure: Procedure. DBA/BALB(F1) mice were injected i.p. with 3×10^6 myeloma NS/0 cells to induces tumor. Myeloma NS/O-bearing mice were treated for 5 days since the third day of tumor implantation singly a day with i.p. injection of 0.5 ml saline made on the control water or 0.5 ml saline made on light water. Tumor masses and percent of mitotic cells in bone marrow were measured on day 21. Data are presented in Table 2 as tumor mass mean ±SD (n=5).
Materials and tumor implantation procedure were as described in example 3. Interferon-alpha2b, rubomicin, and etoposide were used as typical anti-neoplasm agents.
Myeloma NS/O-bearing mice were treated for 5 days since the third day singly a day with i.p. injection of 0.5 ml saline made on the water (control), 0.5 ml solution of 0.1 mg/mouse disodium succinate hexahydrate (Succinate) made on the control water, 0.5 ml solution of 10^5 IU/mouse interferon-alpha2b (IFN) made on the control water, 0.5 ml solution of 0.016 mg/mouse rubomicin made on the control water, 0.5 ml solution of 0.03 mg/mouse etoposide made on the control water; 0.5 ml saline made on light water, or 0.5 ml solution of 0.1 mg/mouse disodium succinate hexahydrate (Succinate) made on the light water, and 0.5 ml solution of 10^5 IU/mouse interferon-alpha2b (IFN) made on the light water, 0.5 ml solution of 0.016 mg/mouse rubomicin made on the light water, 0.5 ml solution of 0.03 mg/mouse etoposide made on the light water. Tumor masses were measured on day 21. Data are presented in Table 3 as tumor mass mean ±SD (n=5).

Molecule | Tumor Mass
O.O.O.O.O.O.O=C([O-])CCC(=O)[O-].[Na+].[Na+] [Control water + Succinate, disodium succinate hexahydrate] | 1780 ± 220 mg/mouse
COc1cc([C@@H]2c3cc4c(cc3[C@@H](O[C@@H]3O[C@@H]5CO[C@@H](C)O[C@H]5[C@H](O)[C@H]3O)[C@H]3COC(=O)[C@H]23)OCO4)cc(OC)c1O [Control water + etoposide, etoposide] | 1050 ± 120 mg/mouse
interferon-alpha2b [Control water + IFN] | 1460 ± 180 mg/mouse
rubomicin [Control water + rubomicin] | 1270 ± 150 mg/mouse
